Experimental data from patent US20230333019A1, “TWO-PHOTON FLUORESCENT PROBES FOR SIMULTANEOUSLY DETECTING CALCIUM IONS IN ORGANELLES AND LYSOSOMAL PROTONS” (Korea University Research and Business Foundation, priority 2022, published 2023).
Where two headings read alike, the source gives them in different places. Marks after values point to notes of the source that are not given here.

Key:
[1] = Fluorescence titration with Ca2+ in calcium calibration buffer (apparent dissociation constant, FEF); assay type: binding; details: for FEF, fluorescence enhancement factor (Fmax-Fmin)/Fmin: one-photon, complexation with Ca2+ in CB
Description: (§1) A dissociation constant (Kd) for binding the probe to Ca^2+ was measured using a conventionally known method. Calcium calibration buffers (CBs; 10 mM 3-[N-morpholino]propanesulfonic acid [MOPS], 100 mM KCl, pH 7.2) containing Ca^2+ at concentrations of 0 to 40 μM were prepared using a calcium calibration buffer kit (Biotium, CA, USA). A buffer containing […] or more of Ca^2+ was prepared by adding an appropriate amount of CaCl2 to a MOPS buffer. Probes (BCa-3°mem at a concentration of 0.3 μM and BCa-1 and BCa-2mito at concentrations of 0.1 μM) were added to calcium CB and fluorescence intensity was measured. Each Kd was calculated through a resultant titration curve. In addition, in order to evaluate a fluorescence titration of FHEt-1lyso, the fluorescence intensity was measured by adding FHEt-1lyso probe at a concentration of 0.6 μM in a universal buffer (UB; 0.1 M citric acid, 0.1 M KH2PO4, 0.1 M Na2B4O7, 0.1 M tris[hydroxymethyl]aminomethane, 0.1 M KCl) at pH 4 to 11. The pKa value was calculated through a titration curve.

HeLa cells [2] = test: TPM detection of cytoplasmic Ca2+, histamine-induced oscillation; assay type: cell-based
Description: The mixture was cultured (incubated) at 37° C.
Before and after adding histamine dihydrochloride (100 μM, Sigma-Aldrich) to HBSS, Ca^2+ oscillation was evaluated by TPEF intensity monitoring in HeLa cells labeled with BCa-1-AM (2 μM).
Whether BCa-1 may detect Ca^2+ in the cytoplasm was evaluated. […] The increase and decrease of the TPEF intensity were repeated for 800 seconds, which was consistent with the results of previous histamine-induced Ca oscillation studies. Accordingly, it was confirmed that BCa-1 may target the cytoplasm and detect Ca^2+ in the cytoplasm (FIG. 16).

HeLa cells [3] = test: Dual-color TPM of cytoplasmic Ca2+ and lysosomal pH, monensin; assay type: cell-based; details: monensin 20 μM
Description: To simultaneously monitor changes in lysosomal pH and cytoplasmic [Ca^2+], HeLa cells were co-labeled with a mixture of BCa-1-AM (3 μM) and FHEt-1lyso (1 μM). The cells were washed twice with RB, once with RB containing 5 mM EGTA, and twice with RB containing 0.1 mM EGTA. The TPEF intensity of the cells was measured before and after adding monensin (20 μM, Sigma-Aldrich) to EtOH.
Whether BCa-1 and FHEt-1lyso could be used to simultaneously monitor changes in cytoplasmic [Ca^2+ ] and lysosomal pH during dual-color TPM was evaluated. […] Accordingly, it was confirmed that BCa-1 and FHEt-1lyso could be used to simultaneously monitor changes in cytoplasmic [Ca^2+] and lysosomal pH in live cells during dual-color TPM.

HeLa cells [4] = test system: HeLa cells
Description: HeLa cells were purchased from the Korean Cell Line Bank (Seoul, Korea). […] Before two days of imaging, HeLa cells (5×10^4/mL) were plated on a confocal glass bottom dish (#200350, SPL Life Sciences, Gyonggi-do, Korea). The cells were washed with an aqueous buffer (pH 7.4), a Hank's balanced salt solution (HBSS; LB003-02, WelGene Inc., Gyeongsangbuk-do, Korea), or a Ringer's solution (RB; 124 mM NaCl, 26 mM NaHCO3, 10 mM d-glucose, 1.3 mM MgSO4, 3 mM KCl, 1.25 mM NaH2PO4) unless otherwise specified. Thereafter, the probe (0.5 to 3 μM) and Pluronic® F-127 (0.03%, Sigma-Aldrich, St. Louis, MO, USA) were added to the cells in one of the three aqueous buffers (1.0 mL). The mixture was cultured (incubated) at 37° C. (BCa-1-AM and BCa-2mito-AM) for 40 minutes or at room temperature (RT; BCa-3mem) for 10 minutes. The cells labeled with the probe were washed 3 times with each corresponding buffer before imaging.

[5] = Fluorescence quantum yield; assay type: physicochemical
Description: Absorption and emission spectra of a two-photon probe (TP probe) were measured using an Agilent 8453 diode array UV-Vis spectrophotometer and a Hitachi fluorescence spectrophotometer F-7000 system using a previously reported method (Chem. Asian J. 2015, 10(10):2240-2249). Fluorescence quantum yield (Φ) was measured by a method used in another study (Anal. Chem. 2011, 83(4):1232-1242) using Coumarin 540A. Two-photon (TP) excitation was implemented using a mode-locked Ti:sapphire laser (Chameleon, 90 MHz, 200 fs; Coherent Inc.).
All of the two-photon probe compounds emitted weak fluorescence at a maximum emission value (4) of 464 to 466 nm and fluorescence quantum yields (0) of 0.027 to 0.063 in CB (10 mM MOPS, 100 mM KCl, pH 7.2). […] The low fluorescence quantum yield (0) values observed with these probes may contribute to efficient photo-induced electron transfer (PeT) from the receptor to the fluorophore (Table 1).

[6] = Two-photon action cross-section (Φδ); assay type: physicochemical; details: for Φδmax, maximum TP action cross-section: 750 nm, excess Ca2+ (BCa probes) or pH 4.3 (FHEt-1lyso), error ±15%; for Φδ values: absence of Ca2+ (BCa-3°mem) / pH 11 (FHEt-1lyso)
Description: (§2) Φδ and Φδeff for the probes were evaluated using the fluorescence method as reported in other studies (Chem. Asian J. 2015, 10(10):2240-2249).
To evaluate the brightness of the TPM image, a TP action cross-section (Φδ) was measured by a conventionally known method.

HeLa cells [7] = test: Effective TP action cross-section (Φδeff) in probe-labeled cells; assay type: cell-based; details: 750 nm
Description: as §2

[8] = Metal ion selectivity, relative fluorescence intensity in MOPS buffer; details: for Response to Zn2+ and Mn2+: 100 μM; for Response to Zn2+ and Mn2+ / Response to Mg2+, Fe2+, Cu2+, Co2+: MOPS pH 7.2; for Response to Mg2+, Fe2+, Cu2+, Co2+: Mg2+ 2 mM, Co2+ 100 μM; for Selectivity for Ca2+: versus competing metal ions
Description: FIG. 8 is graphs showing relative fluorescence intensities of (a) BCa-1, (b) BCa-2mito, or (c) BCa−3°mem in the presence of 2 mM Mg^2+ or 100 μM Zn^2+, Mn^2+, Fe^2+, Cu^2+, or Co^2+ (black bars) and according to subsequent addition of 100 μM Ca^2+ (red bars) in a MOPS buffer (30 mM 3[N-morpholino]propanesulfonic acid, 100 mM KCl, pH 7.2). At this time, excitation wavelengths are (a) 363 nm, (b) 355 nm, and (c) 350 nm, respectively.

[9] = Water solubility in aqueous buffer; assay type: physicochemical
Description: The water solubility of BCa-1, BCa-2mito, BCa−3°mem, and FHEt-1lyso in an aqueous buffer (pH 7.4) was evaluated using a conventional fluorescence technique (Chem. Asian J. 2015, 10(10):2240-2249).

HeLa cells [10] = test: TPM detection of Ca2+ in plasma membrane; assay type: cell-based
Description: HeLa cells were purchased from the Korean Cell Line Bank (Seoul, Korea). The cells were cultured by a method described in previous studies (Chem. Asian J. 2015, 10(10):2240-2249). Before two days of imaging, HeLa cells (5×10^4/mL) were plated on a confocal glass bottom dish (#200350, SPL Life Sciences, Gyonggi-do, Korea). The cells were washed with an aqueous buffer (pH 7.4), a Hank's balanced salt solution (HBSS; LB003-02, WelGene Inc., Gyeongsangbuk-do, Korea), or a Ringer's solution (RB; 124 mM NaCl, 26 mM NaHCO3, 10 mM d-glucose, 1.3 mM MgSO4, 3 mM KCl, 1.25 mM NaH2PO4) unless otherwise specified. Thereafter, the probe (0.5 to 3 μM) and Pluronic® F-127 (0.03%, Sigma-Aldrich, St. Louis, MO, USA) were added to the cells in one of the three aqueous buffers (1.0 mL). The mixture was cultured (incubated) at 37° C. (BCa-1-AM and BCa-2mito-AM) for 40 minutes or at room temperature (RT; BCa-3mem) for 10 minutes. The cells labeled with the probe were washed 3 times with each corresponding buffer before imaging.
(§3) TP microscopy (TPM) images were obtained using spectral confocal and multiphoton microscopy (Leica TCS SP2; Leica). TPM images of probe-labeled HeLa cells were obtained using a Leica TCS SP2 using a conventional method (Chem. Asian J. 2015, 10(10):2240-2249). Time-dependent changes in TPEF intensity were monitored and measured at intervals of 1.6 to 2.0 seconds in the xyt mode upon excitation at 750 nm. To monitor changes in [Ca^2+ ] in the plasma membrane, the cells were washed successively with RB containing 5, 0.1, and 0 mM of EGTA and then incubated with BCa-3mem (2 μM). The TPEF intensity was measured before and after adding CaCl2 (2 mM) to RB and EGTA (2 mM) in distilled water.
First, whether BCa-3mem may detect Ca^2+ in the plasma membrane was evaluated.

[11] = Fluorescence titration of FHEt-1lyso against pH in universal buffer (pKa); assay type: physicochemical; details: for pKa: universal buffer (UB)
Description: as §1
Meanwhile, the fluorescence titration of FHEt-1lyso was performed in UB at pH 4 to 11. […] Therefore, it was confirmed that FHEt-1lyso may detect pH in live cells.

HeLa cells [12] = test: TPM lysosome colocalization with BLT-blue; assay type: cell-based
Text: as §3
Whether FHEt-1lyso may detect H^+ in the lysosome was evaluated. […] Therefore, it was confirmed that FHEt-1lyso had the ability to detect H^+ in the lysosome by targeting the lysosome.

[13] = from fluorescence titration curve, CB, read-out: Dissociation constant Kd
[14] = in the absence of excess Ca2+, CB pH 7.2
[15] = in the presence of excess Ca2+ (in parentheses)

Row | Compound | Kd [1, 13] [nM] | FEF, fluorescence enhancement factor (Fmax-Fmin)/Fmin [1] | Fluorescence quantum yield Φ [5, 14] | Fluorescence quantum yield Φ [5, 15] | Φδmax, maximum TP action cross-section [6] | Φδeff, effective TP action cross-section (HeLa cells [7]) [GM] | Response to Zn2+ and Mn2+ [8] | Response to Mg2+, Fe2+, Cu2+, Co2+ [8] | Selectivity for Ca2+ [8] | Φδ values [6] | other results
1 | COCCOCCOc1ccc2oc(-c3ccc4cc(NCC(=O)Nc5ccc(N(CC(=O)OCOC(C)=O)CC(=O)OCOC(C)=O)c(OCCOc6ccccc6N(CC(=O)OCOC(C)=O)CC(=O)OCOC(C)=O)c5)ccc4c3)nc2c1 [BCa-1-AM] | 180 |  |  |  |  |  |  |  |  |  | Duration of repeated increase and decrease of TPEF intensity (HeLa cells [2]; after histamine): 800 s; TPEF intensity on adding histamine (HeLa cells [2]; histamine 100 μM, cytoplasm): increased and then decreased; TPEF intensity in the cytoplasm on monensin addition (HeLa cells [3]; 380 to 480 nm): simultaneously increased
2 | CC(=O)OCOC(=O)CN(CC(=O)OCOC(C)=O)c1ccc(NC(=O)CNc2ccc3cc(-c4nc5cc(OCCC[P+](c6ccccc6)(c6ccccc6)c6ccccc6)ccc5o4)ccc3c2)cc1OCCOc1c(F)cccc1N(CC(=O)OCOC(C)=O)CC(=O)OCOC(C)=O.[Br-] [BCa-2mito-AM] | 2700 |  |  |  |  |  |  |  |  |  | Pearson's colocalization coefficient (A) (HeLa cells [4]; with MitoTracker Red): 0.84
3 | O=C([O-])CN(CC(=O)[O-])c1ccc(NC(=O)CNc2ccc3cc(-c4nc5cc(OCCC[P+](c6ccccc6)(c6ccccc6)c6ccccc6)ccc5o4)ccc3c2)cc1OCCOc1c(F)cccc1N(CC(=O)[O-])CC(=O)[O-].[Br-].[K+].[K+].[K+].[K+] [BCa-2mito] | 2700 | 10 | 0.049^d | (0.50) | 70 10^−50 cm^4s/photon (GM) | 2000 | moderate | weak | high |  | TPEF intensity in the cytoplasm on FCCP treatment (HeLa cells [4]; FCCP): increased temporarily in the cytoplasm and then gradually decreased to a baseline; TPEF intensity in the mitochondria on FCCP treatment (HeLa cells [4]; FCCP): rapidly decreased
4 | CCCCCCOc1ccc2oc(-c3ccc4cc(NCC(=O)Nc5ccc(N(CC(=O)[O-])CC(=O)[O-])c(OCC(=O)N6CCOCC6)c5)ccc4c3)nc2c1.[K+].[K+] [BCa-3mem] |  |  |  |  |  | 4800 |  |  |  |  | Aqueous solubility [9]: too low; TPEF intensity upon addition of Ca2+ (HeLa cells [10]; Ca2+ 2 mM): increased; TPEF intensity during treatment with EGTA (HeLa cells [10]; EGTA 2 mM): decreased; Persistence of plasma membrane signals (HeLa cells [10]; labeled HeLa cells): at least 1 hour
5 | O=C([O-])CN(CC(=O)[O-])c1ccc(NC(=O)CNc2ccc3cc(-c4nc5ccccc5o4)ccc3c2)cc1OCC(=O)N1CCOCC1.[K+].[K+] [BCa-3°mem] |  | 26 | 0.027^d | (0.72) | 60 10^−50 cm^4s/photon (GM) | 4800 | moderate | weak | high | quite low | FEF, fluorescence enhancement factor (in parentheses) ([1]; TP process, complexation with Ca2+): (25); Kd ([1]; TP process, read-out: Kd^TP): 95000 nM; TPM images in contrast to BCa-3mem (HeLa cells [10]; HeLa cells, 0.5 μM probe): much darker and blurry
6 | CCN(CC)c1ccc(NC(=O)CNc2ccc3c(c2)C(C)(CC(=O)NCCN(C)C)c2cc(C(C)=O)ccc2-3)cc1 (centres unmarked) [FHEt-1lyso] |  |  |  |  | 70 10^−50 cm^4s/photon (GM) | 21000 |  |  |  | quite low | FEF, fluorescence enhancement factor (in parentheses) ([11]; TP process, protonation, UB): (24); FEF, fluorescence enhancement factor ([11]; one-photon, protonation, UB): 25; pKa ([11]; TP process, UB, read-out: pKa^TP (in parentheses)): 6.6; pKa ([11]; one-photon fluorescence titration, UB pH 4 to 11, read-out: pKa): 6.5; Fluorescence quantum yield Φ ([5]; at pH 4.3 (in parentheses)): (0.33); Pearson's colocalization coefficient (A) (HeLa cells [12]): 0.86; TPEF intensity in the lysosome on monensin addition (HeLa cells [3]; 550 to 660 nm): rapidly decreased
